Measurements from patent US20240252508A1, “Novel glucose uptake inhibitors for use in the treatment of cancer” (NOVELYEAST BV, priority 2021, published 2024).

Legend:
[1] = tested on: A549 lung adenocarcinoma cells; assay: A549 cell proliferation / growth inhibition; type: cell-based, human; details: for Selected from primary screen for growth inhibition of A549 cells at 50 μM: 50 μM compound, 1 mM glucose; for Selected for having an IC50 ratio (10 mM glucose: 1 mM glucose) of A549 growth higher than WBC-A: IC50 on 10 mM vs 1 mM glucose, compared with WBC-A
Protocol: The analog library (n=203) was screened for inhibition of growth of A549 cells on RPMI medium supplemented with 1 mM glucose. DMSO (green bar) and WBC-A (orange bar) served as negative and positive control, respectively. In addition, the reference glucose transport inhibitors STF-31, Fasentin, BAY-876, WZB-117 and Cytochalasin B were included and indicated in red. Compounds were added at 50 μM concentration. Number of cells was determined by counting nuclei stained by Hoechst after three days of growth.
For both adherent A549 and MCF10Δ H-RAS^V12 cell lines, growth curves were established using the IncuCyte® ZOOM technology. By collecting phase contrast images, the IncuCyte® software provides a calculated confluency percentage from which growth curves can be deducted.
Cells were seeded at a density of 1000-1500 cells/well in a Nunc-Edge™ 96-well plate (Thermo Fisher Scientific) and growth was typically measured over 3 to 5 days. For the measurement of apoptosis induction using the MCF10Δ H-RAS^V12 cell line, the IncuCyte® Caspase-3/7 green dye was added to the medium in the recommended concentration at the beginning of the growth curve experiment. Apoptosis was detected by taking fluorescent images by excitation at 488 nm followed by IncuCyte® software analysis. Cell growth of the KMS-12-PE multiple myeloma cell line, which grows in suspension, was measured by manual cell counting. Cells were initially seeded at a density of 10^4 cells/well and incubated for 4 days after which the cell number was counted. For all cell lines, the same medium used for pregrowth was also used for the growth curve experiment, albeit with different glucose concentrations depending on the experimental design. With compound administration, the final concentration of DMSO never exceeded 0.1%. Typically, at least four technical repeats were included per condition.

tps1Δ cells = assay: Growth rescue of tps1Δ strain on glucose (growth curves, 2% galactose medium); type: cell-based, S. cerevisiae; details: 100 μM compound, 2.5 mM glucose
Protocol: Growth curves were made by measuring OD595 in a 96-well plate using the Multiskan™ FC Microplate Photometer (Thermo Fisher Scientific). Typically, for tps1Δ rescue experiments (FIG. 2b-e; FIG. 4a), cells were (pre)grown in Complete Synthetic medium containing 2% galactose.
Compounds were always added 10 min prior to glucose addition to ensure maximal interaction between the cells and compounds. Cells originating from the preculture were harvested, washed in medium without sugar, after which they were resuspended to an OD of 0.1 in 200 μL of the appropriate medium. At least three technical replicates were included per condition. OD595 was measured at 30° C. every 30 min with a 10-min shaking interval.

Compound | Selected from primary screen for growth inhibition of A549 cells at 50 μM [1] | Rescue of the tps1Δ strain on 2.5 mM glucose at 100 μM (tps1Δ cells) | Selected for having an IC50 ratio (10 mM glucose: 1 mM glucose) of A549 growth higher than WBC-A [1]
Cc1nc(Sc2nnc(-c3ccco3)n2C)c2c(-c3cccs3)csc2n1 [25A] | No | No | 
Cc1sc2nc(-c3cccs3)nc(N(C)Cc3nnc4n3CCCCC4)c2c1C [36A] | No | No | 
Cc1nc(SCC(=O)Nc2c(Cl)cccc2C(F)(F)F)c2c(-c3cccs3)csc2n1 [19C] | No | No | 
Cc1nnc(SCC(=O)NC(C)(C)C)c2c1cnn2-c1ccccc1 [75C] | No | No | 
CCN(C(=O)CSc1nc(C)nc2scc(-c3cccs3)c12)C1CCS(=O)(=O)C1 (stereo not drawn) [2C] | Yes | Yes | Lower IC50 ratio
CCc1nc(SCC(=O)OC)c2ccsc2n1 [42C] | No | No | Lower IC50 ratio
Cc1nc(NCC(=O)Nc2ccccc2Br)c2c(-c3cccs3)csc2n1 [15C] | Yes | No | Higher IC50 ratio and confirmed
CSc1nc(SCCO)c2c3c(sc2n1)COC(C)(C)C3 [81C] | Yes | No | Lower IC50 ratio
Cc1nnc(SCC(=O)NCc2ccco2)c2c1cnn2-c1ccccc1 [71C] | No | No | 
COC(=O)CN(C)c1nc(C)nc2scc(-c3ccc(OC)c(OC)c3)c12 [67C] | Yes | No | Lower IC50 ratio
COc1ccccc1-n1ncc2c(C)nnc(SCC(=O)N3CCOCC3)c21 [77C] | No | No | 
CC(=O)NCc1ccc(C(=O)CSc2nc(C)nc3scc(-c4cccs4)c23)o1 [29B] | No | Yes | 
Cc1nc(Sc2nnc(-c3cccnc3)n2C)c2c(-c3cccs3)csc2n1 [23A] | Yes | Yes | Lower IC50 ratio
Cc1nc(SCC(=O)N(CC(C)C)CC(C)C)c2c(-c3cccs3)csc2n1 [44B] | Yes | No | Lower IC50 ratio
Cc1nc(SCC(C#N)CCC#N)c2c(-c3cccs3)csc2n1 (stereo not drawn) [21C] | No | No | 
COC(=O)CSc1ncnc2scc(-c3ccccc3)c12 [86C] | No | No | 

Compound | Selected from primary screen for growth inhibition of A549 cells at 50 μM [1] | Rescue of the tps1Δ strain on 2.5 mM glucose at 100 μM (tps1Δ cells) | Selected for having an IC50 ratio (10 mM glucose: 1 mM glucose) of A549 growth higher than WBC-A [1]
Cc1nc(SCC(=O)C(C)(C)C)c2c(-c3cccs3)csc2n1 [18A] | Yes | No | Lower IC50 ratio
Cc1nc(SCCO)c2c3c(sc2n1)CCCC3 [22C] | No | No | 
Cc1nc(SCC(=O)c2c(N)n(C)c(=O)n(C)c2=O)c2c(-c3cccs3)csc2n1 [1B] | No | No | 
Cc1nc(SCCN2CCOCC2)c2c(-c3cccs3)csc2n1 [44A] | Yes | Yes | Lower IC50 ratio
Cc1nc(Sc2nc(CSc3ccccc3)nc3sc(C)c(C)c23)n[nH]1 [10A] | No | No | 
CCOC(=O)c1sc2nc(C)nc(SCC(=O)CC)c2c1C [12C] | No | No | 
CC(=O)CSc1nc(C)nc2scc(-c3cccs3)c12 [26B] | No | No | 
COCCSc1nnc(C)c2cnn(-c3ccccc3)c12 [69C] | No | No | 
CCc1nc(SCC(=O)OC)c2c3c(sc2n1)COC(C)(C)C3 [79C] | No | No | 
c1nc(SCCN2CCOCC2)c2c3c(sc2n1)CCCC3 [84C] | No | No | 
CCOC(=O)CSc1nc(CN2CCOCC2)nc2scc(-c3cccs3)c12 [35B] | No | No | 
Cc1nc(NCC(=O)NCc2ccco2)c2c(-c3ccccc3)csc2n1 [4C] | Yes | No | Higher IC50 ratio and confirmed
Cc1sc2ncnc(Sc3nnc4ccccn34)c2c1C [58A] | No | No | 
Cc1nc(SCCC(N)=O)c2c(-c3cccs3)csc2n1 [4B] | No | No | 
Cc1nnc(Sc2nc(-c3cccs3)nc3scc(-c4ccccc4)c23)n1N [8A] | No | No | 
Cc1nc(Sc2nnc3n2CCC(CN=[N+]=[N-])CC3)c2c(-c3cccs3)csc2n1 (stereo not drawn) [87C] | Yes | Yes | Lower IC50 ratio
